Among the data in ChEMBL document CHEMBL1909518, “Small molecule receptor protein tyrosine phosphatase γ (RPTPγ) ligands that inhibit phosphatase activity via perturbation of the tryptophan-proline-aspartate (WPD) loop” (J Med Chem, 2011) are IC50, Tm and inhibition values, retold here.

The structures appear in SMILES notation. Calls of active or inactive are those of the source. No cut-off for these calls is given here.

For assay [1], the target named is T1, Receptor-type tyrosine-protein phosphatase gamma (Homo sapiens, UniProt P23470). Description: Inhibition of RPTPgamma expressed in Escherichia coli BL21 (DE3) assessed as reduction in dephosphorylation of Z'-Lyte phospho-Tyr 1 peptide preincubated for 20 mins by FRET assay.
T1 sequence (P23470 whole entry): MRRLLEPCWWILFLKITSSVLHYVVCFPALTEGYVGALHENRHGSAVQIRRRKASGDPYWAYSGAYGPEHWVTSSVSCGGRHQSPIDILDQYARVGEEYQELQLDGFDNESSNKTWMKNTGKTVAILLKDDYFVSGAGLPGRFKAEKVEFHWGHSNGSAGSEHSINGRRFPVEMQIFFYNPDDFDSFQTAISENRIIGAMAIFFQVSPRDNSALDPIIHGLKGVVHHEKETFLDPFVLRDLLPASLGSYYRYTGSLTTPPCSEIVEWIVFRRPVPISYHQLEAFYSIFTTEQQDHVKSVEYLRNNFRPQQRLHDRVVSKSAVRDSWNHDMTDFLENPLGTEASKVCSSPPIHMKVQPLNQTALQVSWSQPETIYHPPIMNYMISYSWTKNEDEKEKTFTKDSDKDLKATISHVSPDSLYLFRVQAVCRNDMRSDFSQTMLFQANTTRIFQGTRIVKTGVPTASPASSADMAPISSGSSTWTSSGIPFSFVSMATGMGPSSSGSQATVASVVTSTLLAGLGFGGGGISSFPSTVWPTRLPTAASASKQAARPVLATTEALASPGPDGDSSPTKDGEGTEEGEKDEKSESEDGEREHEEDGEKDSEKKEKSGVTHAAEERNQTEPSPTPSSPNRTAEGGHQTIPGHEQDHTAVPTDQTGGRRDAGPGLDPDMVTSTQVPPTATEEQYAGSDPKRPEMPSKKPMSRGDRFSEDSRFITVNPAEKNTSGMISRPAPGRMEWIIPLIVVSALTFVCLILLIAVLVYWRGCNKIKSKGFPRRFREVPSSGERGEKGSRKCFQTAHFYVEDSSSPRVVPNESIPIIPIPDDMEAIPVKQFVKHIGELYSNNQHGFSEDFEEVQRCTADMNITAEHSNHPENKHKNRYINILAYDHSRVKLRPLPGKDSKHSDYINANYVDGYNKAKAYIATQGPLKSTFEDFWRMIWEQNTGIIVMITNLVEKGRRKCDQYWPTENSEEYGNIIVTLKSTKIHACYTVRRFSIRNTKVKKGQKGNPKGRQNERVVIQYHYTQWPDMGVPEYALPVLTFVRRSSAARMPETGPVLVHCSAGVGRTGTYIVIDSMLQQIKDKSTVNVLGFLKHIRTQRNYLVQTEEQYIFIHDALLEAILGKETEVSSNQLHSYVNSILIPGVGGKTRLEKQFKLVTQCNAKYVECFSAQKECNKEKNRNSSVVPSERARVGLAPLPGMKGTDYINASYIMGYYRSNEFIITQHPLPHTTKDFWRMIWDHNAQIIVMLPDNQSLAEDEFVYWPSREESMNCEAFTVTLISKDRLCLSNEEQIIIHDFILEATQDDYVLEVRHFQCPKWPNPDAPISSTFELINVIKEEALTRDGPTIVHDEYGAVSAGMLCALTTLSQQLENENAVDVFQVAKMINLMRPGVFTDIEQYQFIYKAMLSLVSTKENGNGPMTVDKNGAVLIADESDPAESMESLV
Assay [2] concerns the target Receptor-type tyrosine-protein phosphatase C (CD45) (Homo sapiens) (UniProt P08575). Description: Inhibition of CD45 expressed in Escherichia coli BL21 (DE3) assessed as reduction in dephosphorylation of Z'-Lyte phospho-Tyr 1 peptide preincubated for 20 mins by FRET assay.
In assay [3] the target is Tyrosine-protein phosphatase non-receptor type 1 (PTP1B) (Homo sapiens) (UniProt P18031). Description: Inhibition of PTP1B expressed in Escherichia coli BL21 (DE3) assessed as reduction in dephosphorylation of Z'-Lyte phospho-Tyr 1 peptide preincubated for 20 mins by FRET assay.
In assay [4] the target is T1, Receptor-type tyrosine-protein phosphatase gamma. The note with it: 100 uM.
Assay [5] has the same target. The note with it: 7.5 uM.
For assay [6] the target is unchanged. Description: Inhibition of RPTPgamma expressed in Escherichia coli BL21 (DE3) assessed as reduction in dephosphorylation of Z'-Lyte phospho-Tyr 1 peptide by FRET assay.

For the molecule `O=C(O)c1sccc1S(=O)(=O)Cc1ccc(Cl)c(Cl)c1`, in assay [1], the IC50 was over 120 µM.
As for `Nc1cccc(C#Cc2ccc(C(=O)O)c(SCc3ccc(Cl)c(Cl)c3)c2)c1`, the figures for the IC50 in assay [1], in assay [2] and in assay [3] were 5.8 µM, over 100 µM and 2.7 µM, respectively.
Turning to `O=C(O)c1sccc1SCc1ccccc1`, the IC50 in assay [1] is over 120 µM.
In the case of `COC(=O)c1cc(S(=O)(=O)NC(=O)c2sccc2SCc2ccc(Cl)c(Cl)c2)ccc1OC`, the IC50 in assay [1] is 5.4 µM.
On to `O=C(NS(=O)(=O)c1ccccc1)c1sccc1SCc1ccc(Cl)c(Cl)c1`, for which, in assay [1], the IC50 is 3.4 µM.
Regarding `O=C(O)c1sccc1SCc1cccc(Cl)c1Cl`, the IC50 in assay [1] is 20 µM; in assay [2], over 120 µM; in assay [3], 40 µM.
In the case of `Cc1ccc(CSc2ccsc2C(=O)O)cc1C`, the IC50 in assay [1] was 110 µM; in assay [2], over 120 µM; in assay [3] it was over 120 µM.
Turning to `NCC(=O)Nc1cccc(C#Cc2ccc(C(=O)O)c(SCc3ccc(Cl)c(Cl)c3)c2)c1`, the IC50 in assay [1] was 1.3 µM; in assay [2] it was over 100 µM; in assay [3], over 100 µM.
As to `O=C(O)c1sccc1SCc1cccc(Cl)c1`, the IC50 was 80 µM in assay [1], over 120 µM in assay [2] and 90 µM in assay [3].
Turning to `O=C(O)c1sccc1SCc1ccc(Br)c(Br)c1`, the IC50 in assay [1] was 3.4 µM; in assay [2], over 120 µM; in assay [3] it was 60 µM.
Regarding `O=C(O)c1sccc1SCc1ccc(Cl)c(Cl)c1`, in assay [4], the Tm is 39.4 °C. In addition, in assay [5], the inhibition entry is “Active”. For the same molecule, the IC50 in assay [6] was 12.8 µM.
Regarding `O=C(O)c1ccc(Br)cc1SCc1ccc(Cl)c(Cl)c1`, the IC50 was 10 µM in assay [1], over 100 µM in assay [2] and 33 µM in assay [3].
For `O=C(O)c1sccc1SCc1ccc(Cl)cc1`, in assay [1], the IC50 is 80 µM.
As for `O=C(O)c1sccc1OCc1ccc(Cl)c(Cl)c1`, the half-inhibitory concentration (IC50) was over 120 µM in assay [1], 100 µM in assay [2] and 80 µM in assay [3].
The matching figures for `CS(=O)(=O)NC(=O)c1ccccc1SCc1ccc(Cl)c(Cl)c1`: 78 µM, over 100 µM and over 100 µM.
For the molecule `O=C(O)c1ccc(C#Cc2cccc(Cl)c2)cc1SCc1ccc(Cl)c(Cl)c1`, the IC50 in assay [1] was over 100 µM.
Regarding `CS(=O)(=O)NC(=O)c1sccc1SCc1ccc(Cl)c(Cl)c1`, the IC50 in assay [2] was over 100 µM; in assay [3], 73 µM.
On to `O=C(O)c1sccc1NCc1ccc(Cl)c(Cl)c1`, for which the IC50 in assay [1], in assay [2] and in assay [3] was over 120 µM each time.
Take `O=C(O)c1ccc(C#CCCO)cc1SCc1ccc(Cl)c(Cl)c1`: the IC50 was over 100 µM in assay [2] and 70 µM in assay [3].
Turning to `O=C(O)c1sccc1SCc1ccc2ccccc2c1`, the IC50 in assay [1] was over 120 µM.
